Experiment [1] has as its target NACHT, LRR and PYD domains-containing protein 3 (Mus musculus, UniProt Q8R4B8). Nature of the experiment: Inhibition of NLRP3 inflammasome activation in LPS/Nigericin stimulated mouse BMDM cells assessed as reduction in cleaved-IL-1 beta level by ELISA method. Format: cell-based.
For a further experiment, the system named is BMDM. The experiment is described as follows: Effect on NLRP3 protein expression in mouse BMDM cell lysate at 0.02 to 2 uM by Western blot analysis. Format: functional, subcellular. To be noted: dose 0.02-2 µM. For orientation: In western blotting, separated proteins are transferred to a membrane and probed.
The target in experiment [2] is NACHT, LRR and PYD domains-containing protein 3 (Mus musculus) (UniProt Q8R4B8). Nature of the experiment: Inhibition of NLRP3 inflammasome activation in LPS/Nigericin stimulated mouse BMDM cells assessed as reduction in active caspase-1 level by Western blot analysis. Format: cell-based. To be noted: dose 0.2-2 µM.
The target is the same in experiment [3]. The experiment is described as follows: Inhibition of NLRP3 inflammasome activation in LPS/Nigericin stimulated mouse BMDM cells assessed as reduction in IL-1 beta level by Western blot analysis. Format: cell-based. To be noted: dose 0.2-2 µM.
The target in a further experiment is Carbonic anhydrase 2 (Homo sapiens, UniProt P00918). Nature of the experiment: Inhibition of Carbonic anhydrase II (unknown origin).

Active and inactive are the calls of the source. The calls are words filed in the database; no cut-off is given here.

Among the data in ChEMBL document CHEMBL6083243, “Design, synthesis and biological evaluation of sulfonylurea derivatives as NLRP3 inflammasome inhibitors” (Bioorg Med Chem Lett, 2024) are IC50, Activity and inhibition values, retold here.

Chain of NACHT, LRR and PYD domains-containing protein 3 (Q8R4B8 whole entry, the tested form may be a part): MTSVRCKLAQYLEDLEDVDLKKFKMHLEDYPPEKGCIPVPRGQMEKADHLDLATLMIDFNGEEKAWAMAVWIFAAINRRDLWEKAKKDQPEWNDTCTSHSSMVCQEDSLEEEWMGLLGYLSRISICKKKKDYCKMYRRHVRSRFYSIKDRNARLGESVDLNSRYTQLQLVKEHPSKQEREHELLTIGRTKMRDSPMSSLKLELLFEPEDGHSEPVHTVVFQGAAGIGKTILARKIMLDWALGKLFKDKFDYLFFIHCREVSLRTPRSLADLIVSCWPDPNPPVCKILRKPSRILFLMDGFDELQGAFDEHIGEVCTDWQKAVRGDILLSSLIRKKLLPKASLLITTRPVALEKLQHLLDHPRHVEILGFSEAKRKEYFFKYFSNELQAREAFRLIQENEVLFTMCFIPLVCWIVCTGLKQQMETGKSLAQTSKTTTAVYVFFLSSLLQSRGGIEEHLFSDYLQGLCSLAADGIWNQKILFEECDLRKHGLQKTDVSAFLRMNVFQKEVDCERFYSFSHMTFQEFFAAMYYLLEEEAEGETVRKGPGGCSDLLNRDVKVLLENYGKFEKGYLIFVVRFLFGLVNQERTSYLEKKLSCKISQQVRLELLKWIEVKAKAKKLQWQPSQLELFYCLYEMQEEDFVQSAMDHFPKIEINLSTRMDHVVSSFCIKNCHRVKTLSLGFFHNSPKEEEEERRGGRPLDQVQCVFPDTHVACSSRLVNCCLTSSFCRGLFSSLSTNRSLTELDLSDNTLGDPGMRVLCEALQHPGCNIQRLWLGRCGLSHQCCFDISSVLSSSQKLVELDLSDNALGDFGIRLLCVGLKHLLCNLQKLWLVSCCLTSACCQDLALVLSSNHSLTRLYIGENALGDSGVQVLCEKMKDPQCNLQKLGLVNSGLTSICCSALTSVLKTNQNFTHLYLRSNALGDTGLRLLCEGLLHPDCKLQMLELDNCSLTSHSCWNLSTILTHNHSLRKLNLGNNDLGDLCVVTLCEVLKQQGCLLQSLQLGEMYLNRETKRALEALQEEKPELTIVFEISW
Chain of NACHT, LRR and PYD domains-containing protein 3 (Mus musculus) (Q8R4B8 whole entry, the tested form may be a part): as above

In general, IC50 refers to the concentration needed to halve the response being measured. `CC(C)c1cc(Cl)cc(C(C)C)c1NC(=O)NS(=O)(=O)c1cc(C(C)(C)O)co1`: the IC50 in experiment [1] worked out at 171 nM.
With `O=C(Nc1c(Br)cc(Cl)cc1Oc1ccccc1)NS(=O)(=O)c1cc(Br)cc2c1OCC2`, the IC50 in experiment [1] came to 805 nM. For the same compound, the outcome with BMDM was inactive. In addition, the inhibition result in experiment [2] and in experiment [3] was “Dose-dependent-effect” in each case.
Take `CC(C)(O)c1coc(S(=O)(=O)NC(=O)Nc2c3c(cc4c2CCC4)CCC3)c1`: the IC50 in experiment [1] turned out to be 126 nM; on Carbonic anhydrase 2, 11000 nM.
